Reference: patent US20030130493A1, “DNA encoding Edg7 receptor” (priority 1999, published 2003)
Each block holds one compound with its values, some of them ahead of it.

Assays:
human Edg7 receptor [1] = target: T1, human Edg7 receptor (Homo sapiens, UniProt Q9UBY5); assay: Intracellular calcium mobilization (FLIPR, fluo-3) in Edg7-transfected CHO cells; assay type: cell-based; design: expressed in transfected cells; host or cells: CHO (transient, electroporation); conditions: for activity against Edg7: data not shown
T1 sequence (Q9UBY5 1-353): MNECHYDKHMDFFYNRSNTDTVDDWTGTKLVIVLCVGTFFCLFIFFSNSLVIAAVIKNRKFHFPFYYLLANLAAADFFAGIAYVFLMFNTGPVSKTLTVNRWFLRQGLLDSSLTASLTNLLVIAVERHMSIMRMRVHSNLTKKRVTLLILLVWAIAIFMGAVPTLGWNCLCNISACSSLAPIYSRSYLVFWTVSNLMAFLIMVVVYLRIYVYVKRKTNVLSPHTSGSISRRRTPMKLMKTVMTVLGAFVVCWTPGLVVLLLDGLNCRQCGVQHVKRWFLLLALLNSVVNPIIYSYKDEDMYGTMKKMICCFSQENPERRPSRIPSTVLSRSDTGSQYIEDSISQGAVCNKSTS
Method: (§1) Cells expressing the receptor of interest are plated into clear, flat-bottom, black-wall 96-well plates (Costar) at a density of 80,000-150,000 cells per well and allowed to incubate for 48 hr at 5% CO2, 37° C. The growth medium is aspirated and 100 μl of loading medium containing fluo-3 dye is added to each well. The loading medium contains: Hank's BSS (without phenol red)(Gibco), 20 mM HEPES (Sigma), 0.1 or 1% BSA (Sigma), dye/pluronic acid mixture (e.g. 1 mM Flou-3, AM (Molecular Probes) and 10% pluronic acid (Molecular Probes) mixed immediately before use), and 2.5 mM probenecid (Sigma)(prepared fresh) The cells are allowed to incubate for about 1 hour at 5% CO2, 37° C.
During the dye loading incubation the compound plate is prepared. The compounds are diluted in wash buffer (Hank's BSS (without phenol red), 20 mM HEPES, 2.5 mM probenecid) to a 4×final concentration and aliquoted into a clear v-bottom plate (Nunc). Following the incubation the cells are washed to remove the excess dye. A Denley plate washer is used to gently wash the cells 4 times and leave a 100 μl final volume of wash buffer in each well. The cell plate is placed in the center tray and the compound plate is placed in the right tray of the FLIPR. The FLIPR software is setup for the experiment, the experiment is run and the data are collected. The data are then analyzed using an excel spreadsheet program.

human Edg7 receptor [2] = target: T1, human Edg7 receptor; assay: Inositol phosphate (IP) release in Edg7-transfected Cos-7, HEK293 and CHO cells; assay type: cell-based; design: expressed in transfected cells; host or cells: Cos-7, HEK293, CHO (transient, electroporation); conditions: for ability to activate Edg7 (inositol phosphate formation): Cos-7 cells transfected with Edg7, varying concentrations
Method: A typical protocol for the electroporation method as applied to Cos-7 cells is described as follows. Cells to be used for transfection are split 24 hours prior to the transfection to provide flasks which are subconfluent at the time of transfection. The cells are harvested by trypsinization resuspended in their growth media and counted. 5×10^6 cells are suspended in 300 μl of DMEM and placed into an electroporation cuvette. 8 μg of receptor DNA plus 8 μg of any additional DNA needed (e.g. G protein expression vector, reporter construct, antibiotic resistance marker, mock vector, etc.) is added to the cell suspension, the cuvette is placed into a BioRad Gene Pulser and subjected to an electrical pulse (Gene Pulser settings: 0.25 kV voltage, 950 μF capacitance). Following the pulse, 800 μl of complete DMEM is added to each cuvette and the suspension transferred to a sterile tube. Complete medium is added to each tube to bring the final cell concentration to 1×10^5 cells/100 μl. The cells are then plated as needed depending upon the type of assay to be performed. Edg7 receptor-mediated activation of the inositol phosphate (IP) second messenger pathways was assessed by radiometric measurement of IP products. In a 96 well microplate format assay, cells are plated at a density of 70,000 cells per well and allowed to incubate for 24 hours. The cells are then labeled with 0.5 μCi [^3H]myo-inositol overnight at 37° C., 5% CO2. Immediately before the assay, the medium is removed and replaced with 90 μL of PBS containing 10 mM LiCl. The plates are then incubated for 15 min at 37° C., 5% CO2. Following the incubation, the cells are challenged with agonist (10 μl/well; 10×concentration) for 30 min at 37° C., 5% CO2. The challenge is terminated by the addition of 100 μL of 50% v/v trichloroacetic acid, followed by incubation at 4° C. for greater than 30 minutes. Total IPs are isolated from the lysate by ion exchange chromatography. Briefly, the lysed contents of the wells are transferred to a Multiscreen HV filter plate (Millipore) containing Dowex AG1-X8 (200-400 mesh, formate form). The filter plates are prepared adding 100μL of Dowex AG1-X8 suspension (50% v/v, water: resin) to each well. The filter plates are placed on a vacuum manifold to wash or elute the resin bed. Each well is first washed 2 times with 200 μl of 5 mM myo-inositol. Total [^3H]inositol phosphates are eluted with 75 μl of 1.2M ammonium formate/0.1M formic acid solution into 96-well plates. 200 μL of scintillation cocktail is added to each well, and the radioactivity is determined by liquid scintillation counting.

[3] = test system: LPA receptors endogenous to oocytes; assay: Calcium-activated Cl- currents in control (uninjected) Xenopus oocytes; assay type: cell-based, Xenopus laevis
human Edg7 receptor [4] = target: T1, human Edg7 receptor; assay: Calcium-activated Cl- currents in Xenopus oocytes injected with Edg7 mRNA; assay type: cell-based
Method: Oocytes are harvested from Xenopus laevis and injected with mRNA transcripts as previously described (Quick and Lester, 1994; Smith et al.,1997). Edg7 receptor RNA transcript is synthesized using the T7 polymerase (“Message Machine,” Ambion) from linearized plasmids or PCR products containing the complete coding region of the gene. Oocytes are injected with 1-50 ng synthetic receptor RNA and incubated for 3-8 days at 17° C. Currents are recorded under dual electrode voltage clamp (Axon Instruments Inc.) with 3 M KCl-filled glass microelectrodes having resistances of 1-2 Mohm. Unless otherwise specified, oocytes are voltage clamped at a holding potential of −80 mV. During recordings, oocytes are bathed in continuously flowing (1-3 ml/min) medium containing 96 mM NaCl, 2 mM KCl, 1.8 MM CaCl2, 1 mM MgCl2, and 5 mM HEPES, pH 7.5 (ND96). Drugs are applied either by local perfusion from a 10 μl glass capillary tube fixed at a distance of 0.5 mm from the oocyte, or by switching from a series of gravity fed perfusion lines.
Activation of the phospholipase C (PLC) pathway is assayed by applying a test compound in ND96 solution to oocytes previously injected with mRNA for the Edg7 receptor and observing inward currents at a holding potential of approximately −80 mV. The appearance of currents that reverse at −25 mV and display other properties of the Ca^++-activated Cl^− channel is indicative of receptor-activation of PLC and release of IP3 and intracellular Ca^++.
Involvement of the Gi/o class of G-proteins in GPCR-stimulated Ca^++-activated Cl^− currents is evaluated using PTX, a toxin which inactivates Gi/o G-proteins. Oocytes are injected with 25 ng PTX/oocyte and modulation of Ca^++-activated Cl^− currents by Edg7 receptor is evaluated 2-5 h subsequently.

[5] = test system: mock (empty vector)-transfected Cos-7 cells; assay: Inositol phosphate (IP) formation in mock (empty vector)-transfected Cos-7 cells; assay type: cell-based; conditions: 1 μM final concentration, n=4
Method: A typical protocol for the electroporation method as applied to Cos-7 cells is described as follows. Cells to be used for transfection are split 24 hours prior to the transfection to provide flasks which are subconfluent at the time of transfection. The cells are harvested by trypsinization resuspended in their growth media and counted. 5×10^6 cells are suspended in 300 μl of DMEM and placed into an electroporation cuvette. 8 μg of receptor DNA plus 8 μg of any additional DNA needed (e.g. G protein expression vector, reporter construct, antibiotic resistance marker, mock vector, etc.) is added to the cell suspension, the cuvette is placed into a BioRad Gene Pulser and subjected to an electrical pulse (Gene Pulser settings: 0.25 kV voltage, 950 μF capacitance). Following the pulse, 800 μl of complete DMEM is added to each cuvette and the suspension transferred to a sterile tube. Complete medium is added to each tube to bring the final cell concentration to 1×10^5 cells/100 μl. The cells are then plated as needed depending upon the type of assay to be performed. Edg7 receptor-mediated activation of the inositol phosphate (IP) second messenger pathways was assessed by radiometric measurement of IP products. […] 200 μL of scintillation cocktail is added to each well, and the radioactivity is determined by liquid scintillation counting.

[6] = test system: mock DNA (empty vector)-transfected CHO cells; assay: Intracellular calcium mobilization (FLIPR, fluo-3) in mock DNA-transfected CHO cells; assay type: cell-based, Chinese hamster; conditions: mean±SEM, n=6, read-out: EC50 of increase in intracellular calcium
From the text: In another method, the measurement of intracellular calcium can also be performed on a 96-well (or higher) format and with alternative calcium-sensitive indicators, preferred examples of these are: aequorin, Fluo-3, Fluo-4, Fluo-5, Calcium Green-1, Oregon Green, and 488 BAPTA. After activation of the receptors with agonist ligands the emission elicited by the change of intracellular calcium concentration can be measured by a luminometer, or a fluorescence imager; a preferred example of this is the fluorescence imager plate reader (FLIPR).
as §1
During the dye loading incubation the compound plate is prepared. […] The data are then analyzed using an excel spreadsheet program.

Compound: lysophosphatidylserine
significantly different response in Edg7-expressing cells as compared to mock DNA-transfected cells (human Edg7 receptor [1]; CHO cells, intracellular calcium, 10 μM): significantly different response

Compound: platelet-activating factor
activity against Edg7 (human Edg7 receptor [1]): inactive

activity against Edg7 (human Edg7 receptor [1]): inactive
Compound: CCCCCCCC/C=C\CCCCCCCC(=O)O [oleic acid]

activity against Edg7 (human Edg7 receptor [1]): inactive
Compound: CCCCC[C@H](O)/C=C/[C@H]1[C@H](O)CC(=O)[C@@H]1C/C=C\CCCC(=O)O [prostaglandin E2]

activity against Edg7 (human Edg7 receptor [1]): inactive
Compound: thromboxane B4

Compound: CCCCCCCCCCCCC/C=C/[C@@H](O)[C@@H](N)COP(=O)([O-])OCC[N+](C)(C)C [sphingosylphosphorylcholine]
ability to activate Edg7 (inositol phosphate formation) (human Edg7 receptor [2]): No dose-responsiveness

intracellular calcium responses in Edg7- versus mock DNA-transfected cells (human Edg7 receptor [1]; CHO cells, n=3): almost identical
Compound: O=c1ccn([C@@H]2O[C@H](COP(=O)(O)OP(=O)(O)OP(=O)(O)O)[C@@H](O)[C@H]2O)c(=O)[nH]1 [UTP]

activity against Edg7 (human Edg7 receptor [1]): inactive
Compound: sphingomyelin

activity against Edg7 (human Edg7 receptor [1]): inactive
Compound: phosphatidyl choline

Compound: CCCCC/C=C\C/C=C\C/C=C\C/C=C\CCCC(=O)NCCO [anandamide]
activity against Edg7 (human Edg7 receptor [1]): inactive

inward Cl- currents, typical response ([3]; control oocytes lacking injection of foreign mRNA): 100-1000 nA | LPA response (Cl- current) after treatment with PTX ([3]; control oocytes, PTX 25 ng injected 2-5 h prior to recording): nearly abolished | Cl- current amplitude ([3]; uninjected oocytes, batch with low endogenous LPA activity, oleoyl LPA 1 μM, n=5): 18±18 nA | concentration at which nearly maximal responses were observed (human Edg7 receptor [4]; Edg7-injected oocytes, Cl- current): 100 nM | LPA response (Cl- current) after treatment with PTX (human Edg7 receptor [4]; Edg7-injected oocytes, PTX 25 ng injected 2-5 h prior to recording): substantial current remained | Cl- current amplitude (human Edg7 receptor [4]; oocytes injected with Edg7 mRNA, oleoyl LPA 1 μM, n=5): 1272±126 nA
Compound: Lysophosphatidic acid [LPA]

activation of Edg7 receptors (intracellular calcium) (human Edg7 receptor [1]; CHO cells, n=4): agonist | increase in intracellular calcium (human Edg7 receptor [1]; Edg7 receptors, CHO cells, n=4): approximately 5 fold | ability to activate Edg7 (inositol phosphate formation) (human Edg7 receptor [2]): partial agonist
Compound: phosphatidic acid

activation of Edg7 receptors (intracellular calcium) (human Edg7 receptor [1]; CHO cells, n=4): failed to activate | ability to activate Edg7 (inositol phosphate formation) (human Edg7 receptor [2]): No dose-responsiveness
Compound: CCCCCCCCCCCCC/C=C/[C@@H](O)[C@@H](N)COP(=O)(O)O [sphingosine-1-phosphate]

peak intracellular calcium response in Edg7-transfected cells as compared to mock DNA-transfected cells (human Edg7 receptor [1]; CHO cells, 10 μM): approximately 3 fold | average increase in IP production (human Edg7 receptor [2]; Edg7-transfected Cos-7 cells, 1 μM final concentration, n=4): 3 fold | Emax of IP response (human Edg7 receptor [2]; all three cell lines (Cos-7, HEK 293, CHO)): 200-300%
Compound: CCCCCCCC/C=C\CCCCCCCC(=O)OCC(O)COP(=O)(O)O (centres unmarked) [oleoyl LPA, oleoyl lysophosphatidic acid]
average increase in IP production [5]: 2 fold | EC50 [6]: 347 ± 54 nM
